Reference: patent US20260248799A1, “COMBINATIONS OF RETINALDEHYDE DEHYDROGENASE 1 (RALDH1) INHIBITORS AND IMMUNOSTIMULATORS AND METHODS USING SAME” (The Trustees of the University of Pennsylvania, priority 2023, published 2026)

What was measured:
Huh7 tumors = Huh7 tumors in NU/J mice; format: in vivo, mouse
Experimental: FIGS. 26A-26H: Raldh1-INH suppresses HCC growth by altering macrophage functions. FIG. 26A: Huh7 tumor-bearing NU/J mice were treated with C86 (i.p, 10 mg/kg) every day starting when tumor size was approximately 50 mm^3. Tumor volume was measured every 2 days. […] Three or more independent experiments were performed with at least three replicates per experimental group. Unpaired t test, two-tailed. FIG. 26B: AldeRed assay at endpoint on Huh7 tumor treated as described in FIG. 26A. […] Three or more independent experiments were performed with at least three replicates per experimental group. Unpaired t test, two-tailed. FIG. 26C: Huh7 tumor-bearing nude mice were treated with different dose of C86 every day. Tumor volume was measured every 2-3 days. […] Two independent experiments were performed with at least three replicates per experimental group. Unpaired t test, two-tailed. FIG. 26D: Body weight measured every 3-5 days for the experiment outlined in FIG. 26C. FIG. 26E: Parental Huh7 or RALDH1-KO Huh7 cells were implanted subcutaneously into NU/J mice and treated with C86 (i.p, 10 mg/kg) or vehicle (control) every day. […] Three or more independent experiments were performed with at least three replicates per experimental group. Unpaired t test, two-tailed. FIG. 26F: Huh7 tumor-bearing NU/J mice were treated with clodronate liposomes (CloLipo) and/or C86. […] Two independent experiments were performed with at least three replicates per experimental group. Unpaired t test, two-tailed. FIG. 26G: Murine Hepa 1-6 tumors were implanted subcutaneously into C57BL6/J WT mice or LyMCre:RosadnRAR mice. Expression of the dominant negative RAR in myeloid cells slows tumor growth. Two independent experiments were performed with at least three replicates per experimental group. Unpaired t test, two-tailed. FIG. 26H: Huh7 cells were implanted subcutaneously into NU/J mice. When tumor size reached about 50 mm^3, mice were intraperitoneally injected vehicle (control) or C86 daily with or without BMS493 treatment intratumorally every 3 days. BMS493 and C86 suppress tumor growth with the combination showing higher suppression than monotherapy. *, P<0.05; **, P<0.01; ***, P<0.001; n.s., not significant.
(§1) Cultured Huh7, Huh1, Hepa 1-6, Hep55, and FS (as indicated in figure legends) tumor cells were detached using 0.25% trypsin (Gibco, catalog #25200056), washed once with 1×PBS, and counted before implantation. 3~6×10^6 tumor cells were implanted subcutaneously (s.c.) into shaved flanks of recipient mice. Tumor dimensions were measured using a caliper starting at the day indicated in the accompanying figure legend and every two to three days thereafter; volume was calculated by using formula Length*Width^2/2. Tumor volumes of 2,000 mm^3, tumor length of 2 cm or tumor ulceration were used as endpoints for survival analyses.
Compound-86, 97 and 99 powder was dissolved in 20% HPβCD saline (2-Hydroxypropyl)-[…]). Drug was administered i.p. or p.o. starting when tumor volume reached 50-150 mm^3 and repeated every day.

Hepa 1-6 tumors = Hepa 1-6 tumors in mice; format: in vivo, mouse; details: Hepa 1-6 in C57BL6/J mice treated with anti-CD3; i.p., 20 mg/kg every day
Experimental: FIGS. 28A-28G: C99 inhibits murine RALDH1 and suppresses murine HCC growth. FIG. 28A: AldeRed assay was performed on Hepa1-6 (murine HCC, left graph) and SNU398 (human HCC, right graph) cells with or without different concentration of C99 (x-axis). Shown is the percentage of AldeRed-positive cells (y-axis) after 24 hours exposure to C99. Murine RALDH1 is sensitive to C99. FIG. 28B: Hepa1-6 cells were treated with different concentrations of C99 in vitro and the number of viable cells were counted at different time points. […] FIG. 28C: C57BL6/J mice were implanted subcutaneously with Hepa1-6 cells and the tumor-bearing mice. To prevent spontaneous rejection of this cell line, mice were treated with anti-CD3. Once the tumors reached around 50 mm^3 size, mice were treated with C86 or C99 (i.p., 20 mg/kg) every day. […] C99, but not C86, suppresses murine HCC growth. Two independent experiments were performed with at least three replicates per experimental group. Unpaired t test, two-tailed. FIG. 28D: Tumors in (FIG. 28C) were harvested at endpoint, single-cell suspension generated, and AldeRed assay was performed along with surface staining with immune cell markers. Shown is the percentage of AldeRed-positive cells in nonleukocytes (CD45 negative, mostly tumor cells) under the different treatment conditions. Two independent experiments were performed with at least three replicates per experimental group. Unpaired t test, two-tailed. FIG. 28E: FCS base frequency of Macrophages (F4/80^+ cells) within CD45^+ leukocytes in tumor tissues from experiment outlined in (FIGS. 28C-28D). Two independent experiments were performed with at least three replicates per experimental group. Unpaired t test, two-tailed. FIG. 28F: Hepa1-6 tumor-bearing NU/J mice were treated with chlodronate liposomes (CloLipo) and/or C86/C99. CloLipo treatment suppresses tumor growth and renders tumors insensitive to C99. Two independent experiments were performed with at least three replicates per experimental group. Unpaired t test, two-tailed. FIG. 28G: The murine fibrosarcoma (FS) cell line was implanted subcutaneously into C57BL6/J mice. Mice were treated with 25 mg/kg of C-99 or vehicle everyday starting one day after tumor cell transplantation. *, P<0.05; **, P<0.01; ***, P<0.001; ns, not significant.
as §1
To deplete T cells, 200 μg of mouse CD3-specific antibody (clone 17A2) was administered i.p. starting three days before tumor implantation and repeated every three to four days until mouse sacrifice. To deplete macrophages, 200 μL of clodronate liposome (CloLipo) or PBS-liposome (CtrlLipo) (both Liposoma) was administered i.p. starting three days prior to tumor implantation and repeated every four days until mouse sacrifice. Macrophage depletion efficacy in spleen and within tumors was confirmed by flow cytometry using canonical macrophage marker F4/80. […]

[1] = molecular target: T1, Protein Tyrosine Kinase, Insulin Receptor (Homo sapiens, UniProt P06213); test: Safetyscreen: Insulin Receptor kinase; format: biochemical; details: read-out: % Inh. Protein Tyrosine Kinase, Insulin Receptor
T1 construct: Eurofins Cerep Panlabs (contract panel)
T1 sequence (P06213 28-1382): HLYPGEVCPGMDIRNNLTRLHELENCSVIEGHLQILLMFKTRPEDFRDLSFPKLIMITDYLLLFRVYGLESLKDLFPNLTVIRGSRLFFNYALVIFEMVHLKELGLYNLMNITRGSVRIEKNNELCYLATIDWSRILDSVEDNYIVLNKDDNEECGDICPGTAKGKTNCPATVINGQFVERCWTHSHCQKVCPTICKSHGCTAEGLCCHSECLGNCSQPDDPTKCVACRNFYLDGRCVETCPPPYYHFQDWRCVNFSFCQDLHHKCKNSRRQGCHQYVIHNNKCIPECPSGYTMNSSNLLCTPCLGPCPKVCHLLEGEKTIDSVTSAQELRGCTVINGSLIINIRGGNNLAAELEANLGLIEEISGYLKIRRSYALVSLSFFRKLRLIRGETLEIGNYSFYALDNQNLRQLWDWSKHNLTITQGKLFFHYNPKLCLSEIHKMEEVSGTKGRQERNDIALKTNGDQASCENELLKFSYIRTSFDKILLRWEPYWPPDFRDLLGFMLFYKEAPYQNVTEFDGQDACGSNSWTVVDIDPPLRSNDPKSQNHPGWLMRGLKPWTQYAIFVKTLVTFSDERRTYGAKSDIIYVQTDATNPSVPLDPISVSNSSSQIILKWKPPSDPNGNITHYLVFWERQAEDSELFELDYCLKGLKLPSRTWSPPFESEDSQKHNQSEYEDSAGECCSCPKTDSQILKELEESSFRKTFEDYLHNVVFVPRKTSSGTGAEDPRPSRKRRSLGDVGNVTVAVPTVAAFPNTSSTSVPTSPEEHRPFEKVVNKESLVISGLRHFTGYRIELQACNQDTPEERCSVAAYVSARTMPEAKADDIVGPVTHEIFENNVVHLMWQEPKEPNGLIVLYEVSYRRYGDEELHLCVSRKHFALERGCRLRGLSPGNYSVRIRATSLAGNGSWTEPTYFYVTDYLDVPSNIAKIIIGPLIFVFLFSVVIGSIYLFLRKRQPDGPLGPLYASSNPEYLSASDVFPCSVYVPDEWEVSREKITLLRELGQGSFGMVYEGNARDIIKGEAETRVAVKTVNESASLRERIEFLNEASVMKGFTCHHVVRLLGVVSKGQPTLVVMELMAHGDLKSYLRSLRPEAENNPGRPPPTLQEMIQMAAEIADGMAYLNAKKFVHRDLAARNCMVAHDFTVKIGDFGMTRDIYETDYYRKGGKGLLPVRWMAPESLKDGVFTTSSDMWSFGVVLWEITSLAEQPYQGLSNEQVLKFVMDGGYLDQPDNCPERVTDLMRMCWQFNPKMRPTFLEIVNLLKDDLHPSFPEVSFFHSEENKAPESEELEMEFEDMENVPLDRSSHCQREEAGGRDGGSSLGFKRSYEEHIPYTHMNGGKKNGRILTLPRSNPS

[2] = molecular target: T2, Protein Tyrosine Kinase, LCK (Homo sapiens, UniProt P06239); test: Safetyscreen: LCK; format: biochemical; details: read-out: % Inh. Protein Tyrosine Kinase, LCK
T2 construct: Eurofins Cerep Panlabs (contract panel)
T2 sequence (P06239 whole entry): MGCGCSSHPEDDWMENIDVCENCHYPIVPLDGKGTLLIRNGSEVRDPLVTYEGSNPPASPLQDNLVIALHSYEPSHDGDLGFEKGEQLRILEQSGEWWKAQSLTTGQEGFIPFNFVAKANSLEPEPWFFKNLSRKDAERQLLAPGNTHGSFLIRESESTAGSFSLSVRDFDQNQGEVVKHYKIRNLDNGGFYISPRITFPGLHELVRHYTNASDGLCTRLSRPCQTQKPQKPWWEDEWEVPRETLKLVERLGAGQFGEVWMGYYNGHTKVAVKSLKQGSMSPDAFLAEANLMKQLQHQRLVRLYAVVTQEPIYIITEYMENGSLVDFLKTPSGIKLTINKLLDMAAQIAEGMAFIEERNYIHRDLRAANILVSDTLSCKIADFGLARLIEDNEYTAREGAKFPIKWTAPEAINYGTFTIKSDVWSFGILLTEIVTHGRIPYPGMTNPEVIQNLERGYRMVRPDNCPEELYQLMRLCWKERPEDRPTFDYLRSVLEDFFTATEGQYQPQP

Glucocorticoid = molecular target: T3, Glucocorticoid (Homo sapiens, UniProt P04150); test: Safetyscreen: Glucocorticoid; format: binding; details: read-out: % Inh. Glucocorticoid
T3 construct: purchased Eurofins Cereps Panlabs
T3 sequence (P04150 whole entry): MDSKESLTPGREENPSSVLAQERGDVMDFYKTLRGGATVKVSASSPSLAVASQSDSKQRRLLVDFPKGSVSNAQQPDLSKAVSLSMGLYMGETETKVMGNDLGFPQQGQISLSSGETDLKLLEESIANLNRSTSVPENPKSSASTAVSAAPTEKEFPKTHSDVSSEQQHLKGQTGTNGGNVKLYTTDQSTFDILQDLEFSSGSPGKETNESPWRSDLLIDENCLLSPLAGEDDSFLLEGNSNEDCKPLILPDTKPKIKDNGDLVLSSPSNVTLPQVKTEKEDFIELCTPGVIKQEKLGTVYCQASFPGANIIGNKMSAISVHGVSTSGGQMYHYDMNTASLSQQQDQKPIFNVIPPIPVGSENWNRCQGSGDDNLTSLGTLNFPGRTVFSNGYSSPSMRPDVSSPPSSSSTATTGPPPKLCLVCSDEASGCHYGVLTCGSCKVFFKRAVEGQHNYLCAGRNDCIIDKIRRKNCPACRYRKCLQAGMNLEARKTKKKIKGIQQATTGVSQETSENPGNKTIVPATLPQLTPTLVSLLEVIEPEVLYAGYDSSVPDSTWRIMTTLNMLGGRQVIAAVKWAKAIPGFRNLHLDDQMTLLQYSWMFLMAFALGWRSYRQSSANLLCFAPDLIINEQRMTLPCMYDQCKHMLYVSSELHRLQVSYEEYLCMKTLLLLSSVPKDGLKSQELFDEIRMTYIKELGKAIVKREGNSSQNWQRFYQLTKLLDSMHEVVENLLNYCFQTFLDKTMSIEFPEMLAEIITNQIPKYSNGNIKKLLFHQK

[3] = Huh7 tumor-bearing nude mice, once daily dosing

For CS(=O)(=O)N1CCN(C(=O)c2cnc3ccc(F)cc3c2N2CCC(C#N)(c3ccccc3)CC2)CC1 [Compound C-86, 1-(6-fluoro-3-(4-(methylsulfonyl)piperazine-1-carbonyl)quinolin-4-yl)-4-phenylpiperidine-4-carbonitrile], the “tumor mass and volume” value (Huh7 tumors; Huh7, C-86 versus C-97 (FIGS. 17A-17B)) was “significant reduction in tumor mass and volume”, the “dose dependence of effect on tumor volume and tumor mass” value (Huh7 tumors; Huh7, FIGS. 13A-13B) was “dose-dependent effect” and the “tumor suppression in the absence of TAMs” value (Huh7 tumors; Huh7, TAM depletion with CloLipo) was “did not further suppress tumors”. For the same compound, the “tumor mass and volume” value (Huh7 tumors; Huh7, intraperitoneal administration, compared to a control (FIGS. 12B-12C)) was “significant reduction in tumor mass and volume”, the tumor mass (Huh7 tumors; Huh7, macrophage depletion study (FIG. 14B)) was “significant reduction in tumor mass” and the “dose at which weight loss was observed” value (Huh7 tumors; [3]) was 40 mg/kg. For the same compound, the “dose with tumor suppressive effects” value (Huh7 tumors; [3]) was greater than 10 mg/kg, the “RALDH activity in tumor cells (AldeRed at endpoint)” value (Huh7 tumors; Huh7 tumors, CD45− cells) was “reduced RADLH activity” and the “response of RALDH1-KO HCC tumors to therapy” value (Huh7 tumors; RALDH1-KO Huh7, i.p, 10 mg/kg every day) was “did not respond”. For the same compound, the tumor inhibition (Huh7 tumors; huh7 in immunodeficient mice, i.p, 10 mg/kg every day) was “significant tumor inhibition”, the “tumor growth in vivo” value (Hepa 1-6 tumors) was “did not suppress” and the inhibition at 10 µM [1] was 0%. For the same compound, the inhibition at 10 µM [2] was 3% and the inhibition at 10 µM (Glucocorticoid) was 9%.
